Literature values as cited in patent publication US20070003591A1, “USE OF A PROPOLIS AS A COATING MATERIAL FOR MEDICAL IMPLANTS” (priority 2005, published 2007).

Key:
[1] = system: transcription factor FKB in T cells; conditions: Márquez et al. 2004
[2] = system: transcription factor FKB in human breast cancer cells of the type MCF-7; conditions: MCF-7 cells; Watabe et al. 2004

## O=C(/C=C/c1ccc(O)c(O)c1)OCCc1ccccc1 [caffeic acid phenylethyl ester]
[1]
  inhibitor of the transcription factor FKB: inhibitor
[2]
  inhibitor of the transcription factor FKB: inhibitor
